We go through four compounds from paper PMC6641291 (ACS Omega, 2018).

One may read the IC50 as the concentration that gives 50% inhibition. Low values mean higher potency, high ones lower potency.

The assay deals with T1, δ^1-pyrroline-5-carboxylate reductase (P5C reductase) (Arabidopsis thaliana, UniProt P54904).
T1 sequence (P54904 1-276): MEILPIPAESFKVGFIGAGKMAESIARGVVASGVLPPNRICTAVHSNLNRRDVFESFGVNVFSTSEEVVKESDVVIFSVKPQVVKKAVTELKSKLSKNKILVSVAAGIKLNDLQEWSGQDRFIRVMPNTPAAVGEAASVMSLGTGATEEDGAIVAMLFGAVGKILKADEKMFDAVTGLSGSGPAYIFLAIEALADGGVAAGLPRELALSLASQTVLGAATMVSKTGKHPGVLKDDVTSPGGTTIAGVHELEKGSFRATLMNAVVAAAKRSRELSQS
The assay is described as follows: P5C-dependent NADH oxidation, absorbance at […] nm. Type of assay: biochemical.
The compound `O=P(O)(O)[C@H]1CCCN1` [(S)-1, Pyrrolidin-2-ylphosphonic Acid] returned a half-maximal inhibitory concentration (IC50) of 21 ± 2 mM.
In the case of `O=P(O)(O)[C@@H]1CCCON1` [(R)-6, (R)-(−)-1,2-oxazinan-3-ylphosphonic acid] it was 45 ± 19 mM.
In the case of `O=P(O)(O)[C@@H]1CCCN1` [(R)-1, Pyrrolidin-2-ylphosphonic Acid] it was 24 ± 4 mM; in that of `O=C(O)[C@@H]1CCCN1` [proline], 84 ± 3 mM.
